Laboratory results: patent US12391799B2, “Peptoid polymers and methods of use” (X-Therma, Inc., priority 2017, dated 2025)
Numbered stars: 1 amine (or outer) side, 2 acyl side, 3 side chain; on linkers, the order of the positions; unused ones are H or OH. Square brackets hold non-standard residues; d marks the D form. Peptide text beside a SMILES is read from it. X1 = CC(O)CN(CC(=O)[*:2])[*:1]; N(iPr)Gly = CC(C)NCC(=O)O; NBuGly = CCCCNCC(=O)O; Nleu = CC(C)CNCC(=O)O

Experiments:
[1] = Vitrification screening assay (critical EG concentration); assay type: physicochemical; details: for Critical Ethylene Glycol Concentration: lowest EG for complete vitrification of 20 μL sample, 5 mg/mL peptoid in formulation, liquid nitrogen immersion; for EG required to permit vitrification: 20 μL sample, 5 mg/mL peptoid, formulation without peptoid needs 20% or more EG
Procedure: As another means of increasing the throughput of library analysis, a vitrification screening assay was performed to evaluate anti-icing efficacy. For these experiments the compounds named “Compound 11,” “Compound 12,” “Compound 25,” Compound 26,” “Compound 27,” “Compound 28,” “Compound 60,” “Compound 62,” “Compound 63,” “Compound 64,” “Compound 69,” “Compound 70,” “Compound 71,” “Compound 72,” “Compound 73,” “Compound 74,” “Compound 75,” “Compound 76,” “Compound 77,” “Compound 78,” “Compound 81,” “Compound 82,” “Compound 83,” “Compound 84,” and “Compound 85” were tested.
For these experiments, 20 μL samples were flash frozen by liquid immersion in liquid nitrogen. Ethylene glycol (EG) concentrations between 5% and 25% (v/v) were used. A concentration of 5 mg/mL of peptoid polymer compounds were used in formulation. Table 12 lists the lowest concentration of EG necessary to bring about complete vitrification of a 20 μL sample with peptoid polymer in formulation, referred to as the “critical EG concentration.” A sample of formulation without the presence of a peptoid polymer was only able to bring about vitrification at 20% or more EG. Peptoid polymers of interest were able to bring about vitrification within formulas containing EG when the concentration of EG was lower than 20%.

[2] = Crystallographic x-ray diffraction (XRD) ice crystal formation assay; assay type: physicochemical; details: 1 and 5 mg/mL peptoid, EG 15-30% (v/v)
Procedure: In order to increase the throughput of library analysis, a crystallographic x-ray diffraction (XRD) technique was used to evaluate ice crystal formation. For these experiments, the compounds named “Compound 2,” “Compound 8,” “Compound 10,” “Compound 11,” “Compound 12,” “Compound 13,” and “Compound 58” were tested. Compound 58 is similar to Compound 12, except that an arginine amino acid has been appended to the N-terminal end.
For these experiments, EG concentrations between 15% and 30% (v/v) were used. Typically, EG, DMSO, and other cryoprotectants are used during XRD sample analysis at concentrations of 35-40% (v/v) to vitrify solutions and avoid diffraction interference from ice crystals. Concentrations of 1 and 5 mg/mL of the peptoid and peptoid-peptide compounds were used. FIGS. 3A, 3B, and 3C illustrate exemplary XRD data under conditions of complete vitrification, partial vitrification with the presence of cubic ice, and freezing ([…]), respectively. FIG. 3D provides ice rings scores for a variety of EG concentrations and two concentrations of Compounds 2, 8, and 12.
“IceRing1” and “IceRing2” refer to ice formation scores, which range between 0 (no ice formation) and 15 (large ice formation).

SMILES	Critical Ethylene Glycol Concentration [1]	EG required to permit vitrification [1]	reduction of necessary EG concentration while preventing ice formation (XRD ice ring scores) [2]
CCC(C)NCC(=O)N(CC(=O)N(CC(=O)N(CC(=O)N(CC(=O)N(CC(=O)N(CC(=O)N(CC(=O)N(CC(=O)N(CC(N)=O)C(C)CC)C(C)CC)CC1CCCO1)CC1CCCO1)C(C)CC)C(C)CC)CC1CCCO1)CC1CCCO1)C(C)CC (stereo not drawn) [Compound 63, Nsb-Nsb-Ntf-Ntf-Nsb-Nsb-Ntf-Ntf-Nsb-Nsb]	15.0% (ν/ν)	–	–
CCC(C)NCC(=O)N(CC(=O)N(CC(=O)N(CC(=O)N(CC(=O)N(CC(=O)N(CC(=O)N(CC(=O)N(CC(=O)N(CC(N)=O)C(C)CC)C(C)CC)CC(C)O)CC(C)O)C(C)CC)C(C)CC)CC(C)O)C(C)CC)C(C)CC (stereo not drawn) [Compound 72, Nsb-Nsb-Nsb-Nhp-Nsb-Nsb-Nhp-Nhp-Nsb-Nsb]	17.5% (ν/ν)	–	–
CCC(C)NCC(=O)N(CC(=O)N(CC(=O)N(CC(=O)N(CC(=O)N(CC(=O)N(CC(=O)N(CC(=O)N(CC(=O)N(CC(N)=O)C(C)CC)C(C)CC)Cc1ccco1)Cc1ccco1)C(C)CC)C(C)CC)Cc1ccco1)Cc1ccco1)C(C)CC (stereo not drawn) [Compound 73, Nsb-Nsb-Nff-Nff-Nsb-Nsb-Nff-Nff-Nsb-Nsb]	20.0% (ν/ν)	–	–
CCC(C)NCC(=O)N(CC(=O)N(CC(=O)N(CC(=O)N(CC(=O)N(CC(=O)N(CC(=O)N(CC(=O)N(CC(=O)N(CC(=O)N(CC(=O)N(CC(=O)N(CC(=O)N(CC(=O)N(CC(=O)N(CC(=O)N(CC(=O)N(CC(=O)N(CC(=O)N(CC(=O)N(CC(=O)N(CC(N)=O)C(C)CC)C(C)CC)CC(C)O)CC(C)O)C(C)CC)C(C)CC)CC(C)O)CC(C)O)C(C)CC)C(C)CC)CC(C)O)CC(C)O)C(C)CC)C(C)CC)CC(C)O)CC(C)O)C(C)CC)C(C)CC)CC(C)O)CC(C)O)C(C)CC (stereo not drawn) [Compound 85, Nsb-Nsb-Nhp-Nhp-Nsb-Nsb-Nhp-Nhp-Nsb-Nsb-Nhp-Nhp-Nsb-Nsb-Nhp-Nhp-Nsb-Nsb-Nhp-Nhp-Nsb-Nsb]	10.0% (ν/ν)	required significantly less EG in order to permit vitrification	–
CCC(C)NCC(=O)N(CC(=O)N(CC(=O)N(CC(=O)N(CC(=O)N(CC(=O)N(CC(=O)N(CC(=O)N(CC(=O)N(CC(=O)N(CC(=O)N(CC(=O)N(CC(=O)N(CC(=O)N(CC(=O)N(CC(=O)N(CC(=O)N(CC(N)=O)C(C)CC)C(C)CC)CC(C)O)CC(C)O)C(C)CC)C(C)CC)CC(C)O)CC(C)O)C(C)CC)C(C)CC)CC(C)O)CC(C)O)C(C)CC)C(C)CC)CC(C)O)CC(C)O)C(C)CC (stereo not drawn) [Compound 84, Nsb-Nsb-Nhp-Nhp-Nsb-Nsb-Nhp-Nhp-Nsb-Nsb-Nhp-Nhp-Nsb-Nsb-Nhp-Nhp-Nsb-Nsb]	12.5% (ν/ν)	required significantly less EG in order to permit vitrification	–
CCCCNCC(=O)N(CCCC)CC(=O)N(CC(=O)N(CC(=O)N(CCCC)CC(=O)N(CCCC)CC(=O)N(CC(=O)N(CC(=O)N(CCCC)CC(=O)N(CCCC)CC(N)=O)CC(C)O)CC(C)O)CC(C)O)CC(C)O (stereo not drawn) [Compound 26, Nbu-Nbu-Nhp-Nhp-Nbu-Nbu-Nhp-Nhp-Nbu-Nbu] (H-[NBuGly][NBuGly][X1][X1][NBuGly][NBuGly][X1][X1][NBuGly][NBuGly]-NH2)	15.0% (ν/ν)	–	–
CCC(C)NCC(=O)N(CC(=O)N(CC(=O)N(CC(=O)N(CC(=O)N(CC(=O)N(CC(=O)N(CC(=O)N(CC(=O)N(CC(N)=O)CC(C)O)CC(C)O)CC(C)O)C(C)CC)CC(C)O)CC(C)O)CC(C)O)CC(C)O)CC(C)O (stereo not drawn) [Compound 8, Nsb-Nhp-Nhp-Nhp-Nhp-Nhp-Nsb-Nhp-Nhp-Nhp]	–	–	significantly reduced necessary EG concentrations while preventing ice formation
CCC(C)NCC(=O)N(CC(=O)N(CC(=O)N(CC(=O)N(CC(=O)N(CC(=O)N(CC(=O)N(CC(=O)N(CC(=O)N(CC(N)=O)CC(C)O)C(C)CC)C(C)CC)C(C)CC)CC(C)O)CC(C)O)CC(C)O)C(C)CC)C(C)CC (stereo not drawn) [Compound 2, Nsb-Nsb-Nsb-Nhp-Nhp-Nhp-Nsb-Nsb-Nsb-Nhp]	–	–	significantly reduced necessary EG concentrations while preventing ice formation
CCC(C)NCC(=O)N(CC(=O)N(CC(=O)N(CC(=O)N(CC(=O)N(CC(=O)N(CC(=O)N(CC(=O)N(CC(=O)N(CC(=O)N(CC(=O)N(CC(=O)N(CC(=O)N(CC(N)=O)C(C)CC)C(C)CC)CC(C)O)CC(C)O)C(C)CC)C(C)CC)CC(C)O)CC(C)O)C(C)CC)C(C)CC)CC(C)O)CC(C)O)C(C)CC (stereo not drawn) [Compound 83, Nsb-Nsb-Nhp-Nhp-Nsb-Nsb-Nhp-Nhp-Nsb-Nsb-Nhp-Nhp-Nsb-Nsb]	10.0% (ν/ν)	required significantly less EG in order to permit vitrification	–
CC[C@@H](C)NCC(=O)N(CC(=O)N(CC(=O)N(CC(=O)N(CC(=O)N(CC(=O)N(CC(=O)N(CC(=O)N(CC(=O)N(CC(N)=O)[C@H](C)CC)[C@H](C)CC)C[C@H](C)O)C[C@H](C)O)[C@H](C)CC)[C@H](C)CC)C[C@H](C)O)C[C@H](C)O)[C@H](C)CC [Compound 78, Nbr-Nbr-Nsh-Nsh-Nbr-Nbr-Nsh-Nsh-Nbr-Nbr]	15.0% (ν/ν)	–	–
CCC(C)N(CC(=O)N(CC(=O)N(CC(=O)N(CC(=O)N(CC(=O)N(CC(=O)N(CC(=O)N(CC(=O)N(CC(=O)N(CC(N)=O)C(C)CC)C(C)CC)CC(C)O)CC(C)O)C(C)CC)C(C)CC)CC(C)O)CC(C)O)C(C)CC)C(C)=O (stereo not drawn) [Compound 60, Ac-Nsb-Nsb-Nhp-Nhp-Nsb-Nsb-Nhp-Nhp-Nsb-Nsb]	12.5% (ν/ν)	required significantly less EG in order to permit vitrification	–
CCC(C)NCC(=O)N(CC(=O)N(CC(=O)N(CC(=O)N(CC(=O)N(CC(=O)N(CC(=O)N(CC(=O)N(CC(=O)N(CC(N)=O)C(C)CC)C(C)CC)C(C)CC)CC(C)O)C(C)CC)C(C)CC)CC(C)O)CC(C)O)C(C)CC (stereo not drawn) [Compound 69, Nsb-Nsb-Nhp-Nhp-Nsb-Nsb-Nhp-Nsb-Nsb-Nsb]	15.0% (ν/ν)	–	–
CC[C@@H](C)NCC(=O)N(CC(=O)N(CC(=O)N(CC(=O)N(CC(=O)N(CC(=O)N(CC(=O)N(CC(=O)N(CC(=O)N(CC(N)=O)[C@H](C)CC)[C@H](C)CC)C[C@@H](C)O)C[C@@H](C)O)[C@H](C)CC)[C@H](C)CC)C[C@@H](C)O)C[C@@H](C)O)[C@H](C)CC [Compound 77, Nbr-Nbr-Nrh-Nrh-Nbr-Nbr-Nrh-Nrh-Nbr-Nbr]	15.0% (ν/ν)	–	–
CCC(C)NCC(=O)N(CC(=O)N(CC(=O)N(CC(=O)N(CC(=O)N(CC(=O)N(CC(=O)N(CC(=O)N(CC(=O)N(CC(N)=O)C(C)CC)C(C)CC)CC(C)O)C(C)CC)C(C)CC)C(C)CC)CC(C)O)CC(C)O)C(C)CC (stereo not drawn) [Compound 70, Nsb-Nsb-Nhp-Nhp-Nsb-Nsb-Nsb-Nhp-Nsb-Nsb]	15.0% (ν/ν)	–	–
CCC(C)NCC(=O)N(CC(=O)N(CC(=O)N(CC(=O)N(CC(=O)N(CC(=O)N(CC(=O)N(CC(=O)N(CC(=O)N(CC(N)=O)C(C)CC)C(C)CC)CC(C)O)CC(C)O)C(C)CC)C(C)CC)C(C)CC)CC(C)O)C(C)CC (stereo not drawn) [Compound 71, Nsb-Nsb-Nhp-Nsb-Nsb-Nsb-Nhp-Nhp-Nsb-Nsb]	17.5% (ν/ν)	–	–
CC(C)CNCC(=O)N(CC(=O)N(CC(=O)N(CC(=O)N(CC(=O)N(CC(=O)N(CC(=O)N(CC(=O)N(CC(=O)N(CC(N)=O)CC(C)C)CC(C)C)CC(C)O)CC(C)O)CC(C)C)CC(C)C)CC(C)O)CC(C)O)CC(C)C (stereo not drawn) [Compound 25, Nib-Nib-Nhp-Nhp-Nib-Nib-Nhp-Nhp-Nib-Nib] (H-[Nleu][Nleu][X1][X1][Nleu][Nleu][X1][X1][Nleu][Nleu]-NH2)	12.5% (ν/ν)	–	–
CC(O)CN(CC(=O)N(CC(=O)N(CC(=O)N(CC(=O)N(CC(=O)N(CC(=O)N(CC(=O)N(CC(N)=O)C(C)C)C(C)C)CC(C)O)CC(C)O)C(C)C)C(C)C)CC(C)O)C(=O)CN(C(=O)CNC(C)C)C(C)C (stereo not drawn) [Compound 28, Nip-Nip-Nhp-Nhp-Nip-Nip-Nhp-Nhp-Nip-Nip] (H-[N(iPr)Gly][N(iPr)Gly][X1][X1][N(iPr)Gly][N(iPr)Gly][X1][X1][N(iPr)Gly][N(iPr)Gly]-NH2)	15.0% (ν/ν)	–	–
CCC(C)N(CC(N)=O)C(=O)CN(C(=O)CN(CC(C)O)C(=O)CN(CC(C)O)C(=O)CN(C(=O)CN(C(=O)CN(CC(C)O)C(=O)CNCC(C)O)C(C)CC)C(C)CC)C(C)CC (stereo not drawn) [Compound 82, Nhp-Nhp-Nsb-Nsb-Nhp-Nhp-Nsb-Nsb]	12.5% (ν/ν)	required significantly less EG in order to permit vitrification	–
CCC(C)NCC(=O)N(CC(=O)N(CC(=O)N(CC(=O)N(CC(=O)N(CC(N)=O)C(C)CC)C(C)CC)CC(C)O)CC(C)O)C(C)CC (stereo not drawn) [Compound 81, Nsb-Nsb-Nhp-Nhp-Nsb-Nsb]	15.0% (ν/ν)	–	–
